# From ChEMBL document CHEMBL3853351, “Discovery of O6-benzyl glaziovianin A, a potent cytotoxic substance and a potent inhibitor of α,β-tubulin polymerization” (Bioorg Med Chem, 2016)
# Values joined by “and” are separate entries in the source; they are usually repeats but may differ in a detail not shown here. Equal entries are not always repeated. Active and inactive are the calls of the source. No cut-off for these calls is given here.
# Assays:
# Sus scrofa [1] = organism: Sus scrofa; assay: Inhibition of [3H]vinblastine binding to microtubule associated proteins free porcine brain alpha/beta-tubulin assessed as remaining radiolabeled binding at 100 uM measured after 5 mins by centrifugal gel filtration method relative to control
# HeLa [2] = assay: Inhibition of bipolar spindle formation in human HeLa cells at 1 uM measured after 6 hrs by DAPI staining-based fluorescence microscopic analysis; type: functional, cell-based
# Sus scrofa [3] = organism: Sus scrofa; assay: Inhibition of [3H]colchicine binding to microtubule associated proteins free porcine brain alpha/beta-tubulin assessed as remaining radiolabeled binding at 100 uM measured after 5 mins by centrifugal gel filtration method relative to control
# [4] = Binding affinity to porcine alpha/beta tubulin assessed as decrease in tryptophan fluorescence measured after 30 mins by tryptophan fluorescence assay; set-up: species or system Sus scrofa
# [5] = Cytotoxicity against human HeLa cells assessed as reduction in cell growth measured after 48 hrs by WST-8 assay; type: functional, cell-based
# [6] = Inhibition of alpha-[32P]-GTP binding to human gamma-tubulin preincubated for 15 mins followed by alpha-[32P]-GTP addition measured after 30 mins
# Homo sapiens = organism: Homo sapiens; assay: Inhibition of alpha-[32P]-GTP binding to human gamma-tubulin at 60 uM preincubated for 15 mins followed by alpha-[32P]-GTP addition measured after 30 mins relative to control
# Sus scrofa [7] = organism: Sus scrofa; assay: Inhibition of microtubule associated proteins free porcine brain alpha/beta-tubulin polymerization at 3 uM measured after 10 mins by thermostatic spectrophotometric method
# HeLa [8] = assay: Mitotic arrest in human HeLa cells at 100 nM measured after 18 hrs by propidium iodide-staining based flow cytometry; type: functional, cell-based
# HeLa [9] = assay: Inhibition of bipolar spindle formation in human HeLa cells at 100 and 300 nM measured after 6 hrs by DAPI staining-based fluorescence microscopic analysis; type: functional, cell-based
# [10] = Inhibition of microtubule associated proteins free porcine brain alpha/beta-tubulin polymerization measured after 10 mins by thermostatic spectrophotometric method; set-up: species or system Sus scrofa
Activity (Sus scrofa [1]),Activity (Sus scrofa [3]),inhibition (Homo sapiens),Structure (SMILES),Kd [4],IC50 [5],other results
118%,20.3%,89.6%,COc1cc2occ(-c3cc(OC)c4c(c3OC)OCO4)c(=O)c2cc1OCc1ccccc1,1000 nM,70 nM,inhibition (Sus scrofa [7]): Active; Activity (HeLa [8]): Active; inhibition (HeLa [9]): Active; IC50 [10]: 2100 nM
–,–,93.3%,COc1cc2c(=O)c(-c3cc(OC)c4c(c3OC)OCO4)coc2cc1OCc1ccccc1,–,12800 nM,–

# Further lines, the compound ahead of its results:
Structure (SMILES),Activity (Sus scrofa [1]),Activity (Sus scrofa [3]),inhibition (Homo sapiens),Kd [4],IC50 [5],other results
COc1cc2occ(-c3cc(OC)c4c(c3OC)OCO4)c(=O)c2cc1OC [GLAZIOVIANIN A],112%,67.8%,–,80000 nM,610 nM,inhibition (HeLa [2]): Active
C#CCOc1cc2occ(-c3cc(OC)c4c(c3OC)OCO4)c(=O)c2cc1OC,–,–,–,–,–,IC50 [6]: 450 nM and 170 nM
CC[C@]1(O)C[C@@H]2CN(CCc3c([nH]c4ccccc34)[C@@](C(=O)OC)(c3cc4c(cc3OC)N(C)[C@H]3[C@@](O)(C(=O)OC)[C@H](OC(C)=O)[C@]5(CC)C=CCN6CC[C@]43[C@@H]65)C2)C1,5.3%,127%,–,–,–,–
COc1cc2c(c(OC)c1OC)-c1ccc(OC)c(=O)cc1[C@@H](NC(C)=O)CC2 [COLCHICINE],–,–,–,26600 nM,20 nM,–
